# Laboratory results taken from patent publication US20210253642A1, “CALPAIN MODULATORS AND THERAPEUTIC USES THEREOF BACKGROUND” (Blade Therapeutics, Inc., priority 2018, published 2021).
# Tests used:
# Format in all cases: biochemical
# Human Cathepsin K = target: T1, Human Cathepsin K (Homo sapiens, UniProt P43235); assay: Cathepsin continuous fluorescence inhibition assay; conditions: Column E; enzyme 10 nM, substrate 1 uM, pH 5.5, 30 minutes pre-incubation with inhibitor
# T1 construct: purchased
# T1 sequence (P43235 115-329): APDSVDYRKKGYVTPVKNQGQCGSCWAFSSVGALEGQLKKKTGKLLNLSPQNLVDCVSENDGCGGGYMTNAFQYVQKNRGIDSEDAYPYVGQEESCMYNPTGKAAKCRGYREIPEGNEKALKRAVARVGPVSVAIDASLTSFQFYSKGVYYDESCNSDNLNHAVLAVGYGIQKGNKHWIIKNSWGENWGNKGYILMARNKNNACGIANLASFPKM
# Protocol: (§1) Cathepsin activity and inhibition thereof was assessed by means of a continuous fluorescence assay. All assays were run in 384 well format and utilized peptide substrates that liberate fluorescence upon protease catalyzed cleavage. FLIPR plate readers (Molecular Devices Inc.) were used to monitor reactions and extract initial rates which were then fit (four parameter logistic function) to obtain IC50 values. All enzymes are human. All enzymes and reagents were obtained commercially and are summarized in Tables 1 and 2 below along with assay conditions.
# Human Cathepsin B = target: T2, Human Cathepsin B (Homo sapiens, UniProt P07858); assay: Cathepsin continuous fluorescence inhibition assay; conditions: Column D; enzyme 25 nM, substrate 1 uM, pH 5.0, 30 minutes pre-incubation with inhibitor
# T2 construct: purchased
# Protocol: as §1
# Human Cathepsin L = target: T3, Human Cathepsin L (Homo sapiens, UniProt P07711); assay: Cathepsin continuous fluorescence inhibition assay; conditions: Column G; enzyme 0.025 nM, substrate 1 uM, pH 6.0, 30 minutes pre-incubation with inhibitor
# T3 construct: purchased
# T3 sequence (P07711 114-333): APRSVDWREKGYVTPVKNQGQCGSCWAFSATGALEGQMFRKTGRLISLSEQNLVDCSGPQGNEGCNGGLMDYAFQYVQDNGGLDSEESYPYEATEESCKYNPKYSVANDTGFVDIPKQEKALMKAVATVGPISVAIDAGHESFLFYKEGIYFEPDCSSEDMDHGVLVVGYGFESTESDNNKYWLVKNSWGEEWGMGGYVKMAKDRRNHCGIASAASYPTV
# Protocol: as §1
# Human Cathepsin S = target: T4, Human Cathepsin S (Homo sapiens, UniProt P25774); assay: Cathepsin continuous fluorescence inhibition assay; conditions: Column F; enzyme 6 nM, substrate 1 uM, pH 4.5, 30 minutes pre-incubation with inhibitor
# T4 construct: purchased
# T4 sequence (P25774 115-331): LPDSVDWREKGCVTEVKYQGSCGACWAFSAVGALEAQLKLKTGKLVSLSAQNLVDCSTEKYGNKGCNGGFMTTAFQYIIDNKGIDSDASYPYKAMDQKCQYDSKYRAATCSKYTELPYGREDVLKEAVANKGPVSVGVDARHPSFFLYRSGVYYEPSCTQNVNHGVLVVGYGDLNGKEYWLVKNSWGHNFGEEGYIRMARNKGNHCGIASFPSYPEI
# Protocol: as §1
# Human Calpain 1/NS1 = target: T5, Human Calpain 1/NS1 (Homo sapiens, UniProt P07384); assay: Calpain continuous fluorescence (FRET) inhibition assay; conditions: Column A; SensoLyte 520 FRET substrate, pH 7.5, 25C
# T5 sequence (P07384 1-714): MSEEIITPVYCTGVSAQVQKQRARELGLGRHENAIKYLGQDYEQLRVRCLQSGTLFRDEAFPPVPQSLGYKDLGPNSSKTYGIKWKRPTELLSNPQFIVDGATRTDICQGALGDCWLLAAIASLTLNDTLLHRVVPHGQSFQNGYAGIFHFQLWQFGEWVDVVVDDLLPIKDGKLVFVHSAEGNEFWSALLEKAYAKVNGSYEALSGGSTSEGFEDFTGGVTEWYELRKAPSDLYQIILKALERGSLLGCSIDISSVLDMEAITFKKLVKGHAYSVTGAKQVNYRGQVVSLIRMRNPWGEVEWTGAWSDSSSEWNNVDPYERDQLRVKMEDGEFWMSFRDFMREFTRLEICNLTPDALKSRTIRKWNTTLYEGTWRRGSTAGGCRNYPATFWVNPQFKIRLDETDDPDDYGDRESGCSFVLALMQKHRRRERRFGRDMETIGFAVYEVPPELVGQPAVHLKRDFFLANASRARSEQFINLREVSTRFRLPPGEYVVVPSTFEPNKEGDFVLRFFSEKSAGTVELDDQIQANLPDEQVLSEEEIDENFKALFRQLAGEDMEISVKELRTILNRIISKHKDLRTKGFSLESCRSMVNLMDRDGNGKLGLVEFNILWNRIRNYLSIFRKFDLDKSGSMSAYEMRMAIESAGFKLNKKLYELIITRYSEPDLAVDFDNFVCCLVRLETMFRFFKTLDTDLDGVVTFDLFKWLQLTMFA
# T5 sequence (P04632 1-268 partner): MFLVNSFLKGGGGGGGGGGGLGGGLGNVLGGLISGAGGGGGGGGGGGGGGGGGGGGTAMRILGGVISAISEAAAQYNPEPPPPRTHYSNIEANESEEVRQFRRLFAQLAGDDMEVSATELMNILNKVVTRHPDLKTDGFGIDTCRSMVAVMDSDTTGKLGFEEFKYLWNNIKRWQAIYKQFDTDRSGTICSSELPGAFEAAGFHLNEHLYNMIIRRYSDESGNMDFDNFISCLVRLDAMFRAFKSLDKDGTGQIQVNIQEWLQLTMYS
# Protocol: (§2) Calpain 1, 2, and 9 activity and inhibition thereof was assessed by means of a continuous fluorescence assay. The SensoLyte 520 Calpain substrate (Anaspec Inc.) was optimized for detecting calpain activity. This substrate contains an internally quenched 5-FAM/QXLTM 520 FRET pair. Calpains 1, 2, and 9 cleave the FRET substrate into two separate fragments resulting in an increase of 5-FAM fluorescence that is proportional to calpain activity
# (§3) Assays were typically setup in black 384-well plates using automated liquid handling as follows. Calpain assay base buffer typically contains 50 mM Tris, pH 7.5, 100 mM NaCl and 1 mM DTT. Inhibitors were serially diluted in DMSO and used to setup 2× mixtures with calpains in the aforementioned buffer. After incubation at ambient temperature (25C), the reaction was initiated by adding a 2× mix of the fluorescent peptide substrate and CaCl2) (required for in-situ calpain activation) in the same buffer. Reaction progress curve data were typically collected for 10 min using excitation/emission wavelengths of 490 nm/520 nm on SpectraMax i3x or the FLIPR-Tetra plate readers (Molecular Devices Inc.). Reaction rates were calculated from progress curve slopes typically over 1-5 min. Dose response curves (rate vs. log inhibitor concentration) were typically fit to a 4-parameter logistic function to extract IC50 values.
# Human Calpain 2/NS1 = target: T6, Human Calpain 2/NS1 (Homo sapiens, UniProt P17655); assay: as above; conditions: Column B; SensoLyte 520 FRET substrate, pH 7.5, 25C
# T6 sequence (P17655 1-700): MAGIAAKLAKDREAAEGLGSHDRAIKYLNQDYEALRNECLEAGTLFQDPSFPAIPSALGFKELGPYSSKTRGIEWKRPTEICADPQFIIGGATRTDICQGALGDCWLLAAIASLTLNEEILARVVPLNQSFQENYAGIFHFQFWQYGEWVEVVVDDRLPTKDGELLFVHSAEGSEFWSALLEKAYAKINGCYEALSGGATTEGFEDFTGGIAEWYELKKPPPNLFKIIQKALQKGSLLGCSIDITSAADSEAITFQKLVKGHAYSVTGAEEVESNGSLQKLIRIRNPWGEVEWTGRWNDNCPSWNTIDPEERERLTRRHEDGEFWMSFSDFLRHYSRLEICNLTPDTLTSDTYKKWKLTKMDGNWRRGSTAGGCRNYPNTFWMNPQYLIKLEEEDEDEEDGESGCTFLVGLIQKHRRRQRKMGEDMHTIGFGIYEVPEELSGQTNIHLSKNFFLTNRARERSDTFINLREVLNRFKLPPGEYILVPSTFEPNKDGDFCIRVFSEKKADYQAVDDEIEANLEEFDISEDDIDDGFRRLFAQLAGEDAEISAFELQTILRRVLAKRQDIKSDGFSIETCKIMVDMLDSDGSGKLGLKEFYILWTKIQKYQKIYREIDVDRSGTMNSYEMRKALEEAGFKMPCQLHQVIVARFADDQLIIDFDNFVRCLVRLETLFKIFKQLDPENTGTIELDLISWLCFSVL
# T6 sequence (P04632 1-268 partner): T5 sequence (P04632 1-268 partner)
# Protocol: as §2, §3
# Human Calpain 9/NS1 = target: T7, Human Calpain 9/NS1 (Homo sapiens, UniProt O14815); assay: as above; conditions: Column C; SensoLyte 520 FRET substrate, pH 7.5, 25C
# T7 sequence (O14815 1-690): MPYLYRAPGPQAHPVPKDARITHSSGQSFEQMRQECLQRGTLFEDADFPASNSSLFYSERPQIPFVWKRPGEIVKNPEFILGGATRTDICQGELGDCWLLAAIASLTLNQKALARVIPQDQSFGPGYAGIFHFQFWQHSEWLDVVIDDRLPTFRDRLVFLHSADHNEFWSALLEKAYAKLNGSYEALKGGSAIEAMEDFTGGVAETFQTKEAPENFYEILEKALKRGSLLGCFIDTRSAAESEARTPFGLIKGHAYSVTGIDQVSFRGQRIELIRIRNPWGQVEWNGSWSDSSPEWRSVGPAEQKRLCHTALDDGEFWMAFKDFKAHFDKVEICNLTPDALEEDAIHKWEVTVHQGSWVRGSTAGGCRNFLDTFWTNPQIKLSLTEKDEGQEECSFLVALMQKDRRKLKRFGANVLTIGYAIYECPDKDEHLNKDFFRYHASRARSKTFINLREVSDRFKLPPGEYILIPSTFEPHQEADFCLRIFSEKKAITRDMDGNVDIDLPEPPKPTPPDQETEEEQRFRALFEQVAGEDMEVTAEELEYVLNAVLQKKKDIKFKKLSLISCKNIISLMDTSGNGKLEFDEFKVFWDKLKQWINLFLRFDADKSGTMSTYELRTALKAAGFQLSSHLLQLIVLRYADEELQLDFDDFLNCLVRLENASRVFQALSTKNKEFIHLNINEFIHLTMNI
# T7 sequence (P04632 1-268 partner): T5 sequence (P04632 1-268 partner)
# Protocol: as §2, §3
Compound,IC50 (Human Cathepsin K) [µM],IC50 (Human Cathepsin B) [µM],IC50 (Human Cathepsin L) [µM],IC50 (Human Cathepsin S) [µM],IC50 (Human Calpain 1/NS1) [µM],IC50 (Human Calpain 2/NS1) [µM],IC50 (Human Calpain 9/NS1) [µM]
"CC(C)[C@@H]1NC(=O)/C=C/[C@@H](NC(=O)[C@@H](NC(=O)OC(C)(C)C)C(C)C)COC(=O)[C@H](Cc2ccc(O)cc2)NC1=O [Compound 2, Tert-butyl ((S)-1-(((3S,6S,11R,E)-3-(4-hydroxybenzyl)-6-isopropyl-2,5,8-trioxo-1-oxa-4,7-diazacyclododec-9-en-11-yl)amino)-3-methyl-1-oxobutan-2-yl)carbamate]",< 3,< 3,< 3,< 3,3 to 10,< 3,> 10
"CC(C)[C@@H]1NC(=O)/C=C/[C@@H](NC(=O)[C@@H](NC(=O)[C@H](Cc2ccc(O)cc2)NC(=O)OC(C)(C)C)C(C)C)COC(=O)[C@H](Cc2ccc(O)cc2)NC1=O [Compound 3, Tert-butyl ((S)-1-(((S)-1-(((3S,6S,11R,E)-3-(4-Hydroxybenzyl)-6-isopropyl-2,5,8-trioxo-1-oxa-4,7-diazacyclododec-9-en-11-yl)amino)-3-methyl-1-oxobutan-2-yl)amino)-3-(4-hydroxyphenyl)-1-oxopropan-2-yl)carbamate]",< 3,< 3,< 3,< 3,< 3,< 3,> 10
"CC(C)[C@@H]1NC(=O)/C=C/[C@@H](N)COC(=O)[C@H](Cc2ccc(O[Si](C)(C)C(C)(C)C)cc2)NC1=O [Compound 4, (3S,6S,11R,E)-11-amino-3-(4-((tert-butyldimethylsilyl)oxy)benzyl)-6-isopropyl-1-oxa-4,7-diazacyclododec-9-ene-2,5,8-trione]",< 3,> 10,3 to 10,3 to 10,> 10,> 10,> 10
CC(C)[C@@H]1NC(=O)/C=C/[C@@H](NC(=O)[C@@H](NC(=O)[C@H](Cc2ccccc2)NC(=O)OC(C)(C)C)C(C)C)COC(=O)[C@H](Cc2ccc(O)cc2)NC1=O [Compound 6],< 3,< 3,< 3,< 3,< 3,< 3,> 10
"CC(C)[C@@H]1NC(=O)/C=C/[C@@H](NC(=O)[C@@H](NC(=O)CNC(=O)OC(C)(C)C)C(C)C)COC(=O)[C@H](Cc2ccc(O)cc2)NC1=O [Compound 7, tert-butyl (2-(((s)-1-(((3S,6S,11R,E)-3-(4-hydroxybenzyl)-6-isopropyl-2,5,8-trioxo-1-oxa-4,7-diazacyclododec-9-en-11-yl)amino)-3-methyl-1-oxobutan-2-yl)amino)-2-oxoethyl)carbamate]",< 3,< 3,< 3,< 3,3 to 10,3 to 10,> 10

# More lines, now with the values ahead:
IC50 (Human Cathepsin K) [µM],IC50 (Human Cathepsin B) [µM],IC50 (Human Cathepsin L) [µM],IC50 (Human Cathepsin S) [µM],IC50 (Human Calpain 1/NS1) [µM],IC50 (Human Calpain 2/NS1) [µM],IC50 (Human Calpain 9/NS1) [µM],Compound
< 3,< 3,< 3,< 3,> 10,> 10,> 10,"CC(C)[C@@H]1NC(=O)/C=C/[C@@H](NC(=O)OC(C)(C)C)COC(=O)[C@H](Cc2ccc(O)cc2)NC1=O [Compound 1, Tert-butyl ((3S,6S,11R,E)-3-(4-Hydroxybenzyl)-6-isopropyl-2,5,8-trioxo-1-oxa-4,7-Diazacyclododec-9-en-11-yl)carbamate]"
< 3,3 to 10,< 3,< 3,> 10,> 10,> 10,"CC(C)[C@@H]1NC(=O)/C=C/[C@@H](NC(=O)OC(C)(C)C)COC(=O)[C@H](Cc2ccccc2)NC1=O [Compound 5, Tert-butyl ((3S,6S,11R,E)-3-benzyl-6-isopropyl-2,5,8-trioxo-1-oxa-4,7-diazacyclododec-9-en-11-yl)carbamate]"
